In ChEMBL document CHEMBL4000210, “Mitigation of reactive metabolite formation for a series of 3-amino-2-pyridone inhibitors of Bruton's tyrosine kinase (BTK)” (Bioorg Med Chem Lett, 2017):

The compounds below were run on Liver (assay: Drug metabolism in human liver microsomes assessed as covalent binding per mg protein at 10 uM in absence of NADPH measured after 30 mins by liquid scintillation counting). Details: 0.5 h.
Format: ADME, microsome

`CN1CCN(c2ccc(Nc3cc(-c4cccc(-n5ncc6cc(C(C)(C)C)cc(F)c6c5=O)c4[14CH2]O)cn(C)c3=O)nc2)CC1` gave a Drug metabolism of 49 pmol.

The compounds below were run on Liver (assay: Drug metabolism in human liver microsomes assessed as covalent binding per mg protein at 10 uM preincubated for 5 mins followed by NADPH addition measured after 30 mins by liquid scintillation counting). Details: 0.5 h.
Format: ADME, microsome

First: CN1CCN(c2ccc(Nc3cc(-c4cccc(-n5ccc6cc(C7CC7)cc(F)c6c5=O)c4CO)cn(C)c3=O)nc2)CC1
Second: CN1CCN(c2ccc(Nc3cc(-c4cccc(-n5ncc6cc(C(C)(C)C)cc(F)c6c5=O)c4[14CH2]O)cn(C)c3=O)nc2)CC1
The Drug metabolism of the first is lower: 294 pmol for the first, 459 pmol for the second.

Going from `Cn1cc(-c2cccc(-n3ncc4cc(C(C)(C)C)cc(F)c4c3=O)c2[14CH2]O)cc(Nc2ccc(C(=O)N3CCOCC3)cn2)c1=O` to `Cn1nc(-c2cccc(-n3ncc4cc(C(C)(C)C)cc(F)c4c3=O)c2[14CH2]O)cc(Nc2ccc(C(=O)N3CCOCC3)cn2)c1=O`, the Drug metabolism falls from 294 pmol to 26 pmol.

First: CN(C)c1ccc2c(c1)CCN(c1cccc(-c3cc(Nc4ccc(C(=O)N5CCOCC5)cn4)c(=O)n(C)c3)c1[14CH2]O)C2=O
Second: Cn1cc(-c2cccc(N3CCc4cc(C(C)(C)C)ccc4C3=O)c2[14CH2]O)cc(Nc2ccc(C(=O)N3CCOCC3)cn2)c1=O
The Drug metabolism of the first is lower: 52 pmol for the first, 422 pmol for the second.

`Cn1cc(-c2cccc(-n3ncc4cc(C(C)(C)C)cc(F)c4c3=O)c2[14CH2]O)cc(Nc2ccc(S(C)(=O)=O)cn2)c1=O` showed a Drug metabolism of 386 pmol.

Each compound was assayed on Liver (assay: Drug level in human liver microsomes treated with 6-tert-butyl-8-fluoro-2-(2-(hydroxymethyl)-3-(1-methyl-5-(5-(methylsulfonyl)pyridin-2-ylamino)-6-oxo-1,6-dihydropyridin-3-yl)phenyl)phthalazin-1(2H)-one by UPLC-MS/MS method). Details: not given.
Format: ADME, microsome

`CN1C(=O)/C(=N/c2ccc(S(C)(=O)=O)cn2)C=C(c2cccc(-n3ncc4cc(C(C)(C)CO)cc(F)c4c3=O)c2CO)C1SC[C@H](NC(=O)CC[C@H](N)C(=O)O)C(=O)NCC(=O)O` (stereo not given in full) was tested, and the Drug metabolism was “Metabolite_Detected”.
For `CN1C(=O)/C(=N/c2ccc(S(C)(=O)=O)cn2)C=C(c2cccc(-n3ncc4cc(C(C)(C)C)cc(F)c4c3=O)c2CO)C1SC[C@H](NC(=O)CC[C@H](N)C(=O)O)C(=O)NCC(=O)O` (stereo not given in full), the Drug metabolism was “Metabolite_Detected”.
